Patent US7608640B2, “Glycine betaine and its use” (priority 2001, dated 2009)
“And” between values parts separate entries of the source, which are not always exact repeats. Equal values may be shown once.

How the values were obtained:
[1] = tested on: coagulation (Fibrinogen, APTT, Prothrombin Time, Anti-Xa activity); assay: Plasma fibrinogen, APTT, prothrombin time and anti-Xa in heparinized rat; type: in vivo; conditions: Example 37
Source text: This example investigated the effect of delayed betaine administration in an antidote type administration inhibited the bleeding time and volume of blood loss induced by heparin treatment in a rat. Twenty male Wistar rats were purchased from Charles River, France and were acclimated for one week prior to the tests. Each rat was weighed prior to testing (weights ranged from 240-340 g with a mean weight of 275 g) and divided into 2 groups of 10 animals each. One group received an injection of heparin (5 mg/kg) at T0. The second group received a heparin injection (5 mg/kg) at T0, and a betaine injection (10 mg/kg) at T0+30 minutes. Both groups were subjected to a bleeding test at T0+60 minutes. The testing was performed using the previously described methodology with slight modifications. The tails were sectioned at 5-8 mm from the extremity. After transection, the proximal end of the tail was placed in a tube and blood was permitted to drip freely into a reservoir of 3.8% citrate solution (1 ml) until bleeding stopped. Blood loss volumes were then determined using a 1000 μl pipette. At the end of the experiments, before euthanasia, blood was sampled by intracardiac puncture on Na-citrate (3.8%, 1:9) and centrifuged at 4000 rpm/min for 20 minutes in order to obtain Poor Platelet Plasma (PPP). Fibrinogen, APTT, Prothrombin Time (Quick) and Anti-Xa activity were determined using an Automatic Coagulation Laboratory ACL 200 (Instrumentation Laboratory, France). […] Betaine efficiency to reduce bleeding times was confirmed. The effect on the haemorrhage was also confirmed since there was a very significant reduction of the blood loss volumes when compared to the heparin group. The delayed administration of betaine after heparin treatment, designed to mimic an antidote mode of administration, almost restored the bleeding times and the volumes of blood loss in the 10 betaine-treated animals to normal.

[2] = tested on: heparin-induced bleeding in rat; assay: Tail cut bleeding test in heparinized rat; type: in vivo; conditions: for IHT (hemorrhage time), Mean / IHT (hemorrhage time), individual rats: Example 35, betaine 10 mg/kg and/or heparin 5 mg/kg s.c. 1 hour prior to testing
Description: This example determined the effect of betaine on hemorrhage time in a heparinized rat. Forty male Wistar rats were purchased from Charles River, France and were acclimated for one week prior to testing. Each animal was weighed prior to testing (weights ranged from 225 to 275 g, mean weight=245 g) and the group of 40 rats was further divided into 4 groups of 10 rats each. One group acted as a control group and each rat in this group received a subcutaneous injection of saline 1 hour prior to testing. The second group received a 10 mg/kg subcutaneous injection of betaine 1 hour prior to testing. The third group received a 5 mg/kg subcutaneous injection of heparin 1 hour prior to testing and the last group received a subcutaneous injection consisting of 5 mg/kg heparin plus 10 mg/kg betaine 1 hour prior to testing. The rats were anesthetized by intramuscular injection of Nesdonal (200 mg/kg). The products were then injected subcutaneously in the abdomen one hour before the tail cut induced bleeding test. For the group receiving the combined heparin/betaine (group 4) injections, the heparin and betaine were injected using different syringes at different sites of administration (left and right sides of the abdomen) in order to avoid any direct reactions between the two substances.
The tail of the anaesthetized rat was dipped for 5 minutes in a water bath at 37° C. in order to induce a dilation of the peripheral vessels. The tail was then removed from the water bath and sectioned at 10-15 mm from the extremity. The chronometer was then started. The IHT is defined as the time, in seconds, between the tail section and the end of the hemorrhage or bleeding. The end of hemorrhage is defined as the moment when the last drop of blood is collected from the tail and when no other drop is observed during 180 seconds. The amount of blood was estimated by visual inspection. […] Betaine has no significant effect on bleeding time and combined use of betaine with heparin almost restored the bleeding time to normal, thereby indicating an antidote-like activity of betaine against heparin.
This example investigated the effect of delayed betaine administration on active heparin-induced bleeding (antidote type administration) in a rat. Twelve male Wistar rats were purchased from Charles River, France and were acclimated for one week prior to testing. Each rat was weighed prior to testing (weights ranged from 245-280 g with a mean of 260 g) and the group of twelve was divided into 3 subgroups. Three rats were in the control group which received two saline injections, one at T0, one at T0+45 minutes. Three rats were in the […] group which received one injection of heparin (5 mg/kg) at T0. Six rats were in the antidote group which received a heparin injection (5 mg/kg) at T0, and a betaine injection (10 mg/kg) at T0+45 minutes. […] However, at the end of the bleeding experiments, blood was sampled by intracardiac puncture on Na-citrate (3.8%, 1:10) and plasmas of the collected blood samples were kept at −20° C. for future biological assays. Chemical products were also identical.
This example investigated the effect of delayed betaine administration in an antidote type administration inhibited the bleeding time and volume of blood loss induced by heparin treatment in a rat. Twenty male Wistar rats were purchased from Charles River, France and were acclimated for one week prior to the tests. Each rat was weighed prior to testing (weights ranged from 240-340 g with a mean weight of 275 g) and divided into 2 groups of 10 animals each. One group received an injection of heparin (5 mg/kg) at T0. The second group received a heparin injection (5 mg/kg) at T0, and a betaine injection (10 mg/kg) at T0+30 minutes. Both groups were subjected to a bleeding test at T0+60 minutes. The testing was performed using the previously described methodology with slight modifications. The tails were sectioned at 5-8 mm from the extremity. […]

[3] = tested on: bleeding time in rats; assay: Induced haemorrhagic (bleeding) time, tail cut; type: in vivo, rat; conditions: for Bleeding time: rat, glycine betaine 5 mg/kg, acetylsalicylic acid 100 mg/kg, heparin 2 mg/kg; for B.T.C. (bleeding time caused): 5 mg/ml/kg; for Provoked haemorrhage: after 24 hours; for Induced haemorrhage: oral 50 mg/kg
Description: Induced Haemorrahgic Time IHT
(E. Dejana. Bleeding time in rats. Thrombosis. Rech. 1982) Blood samples are made before the test. The tail of anaesthetised rat, is dipped for 5 minutes in a water bath at 37° C. so as to provoke a dilatation of the peripheral vessels which are removed and cut at the end, the chronometer being started. The IHT is defined as being the time period comprised between the cutting of end tail and the end of the haemorrhage or bleeding. The end of haemorrhage is defined as the time where the last drop of blood is removed from the tail and no other drop is seen for 180 seconds. […]

[4] = tested on: blood cells; assay: Blood cell counts; type: in vivo, rat; conditions: rat; glycine betaine 5 mg/kg, acetylsalicylic acid 100 mg/kg, heparin 2 mg/kg
[5] = heparin 5 mg/kg at T0, betaine 10 mg/kg at T0+30 minutes
[6] = Example 36, heparin 5 mg/kg at T0, betaine 10 mg/kg at T0+45 minutes, bleeding test at T0+75 minutes
[7] = Example 37, heparin 5 mg/kg at T0, betaine 10 mg/kg at T0+30 minutes, test at T0+60 minutes
[8] = betaine 10 mg/kg 30 minutes after heparin 5 mg/kg

In the case of Heparin, the “APTT, Mean” value [1, 5] is reported as over 180 s, the “APTT, individual rats” value [1, 5] is reported as over 180 s and the “Anti-Xa, Mean” value [1, 5] is reported as 1.37 IU/ml. The “Anti-Xa, individual rats” value [1, 5] was 1.35 IU/ml (2×) and 1.38 IU/ml (2×) and 1.37 IU/ml (2×) and 1.34 IU/ml and 1.41 IU/ml and 1.39 IU/ml (2×), the “Fibrinogen, Mean” value [1, 5] was 1.82 g/L and the “Fibrinogen, individual rats” value [1, 5] was 2.15 g/L and 1.77 g/L and 2.1 g/L and 1.53 g/L and 1.62 g/L and 2.0 g/L and 1.55 g/L and 1.67 g/L and 1.57 g/L and 2.2 g/L. For the same compound, the “Quick (Prothrombin Time), Mean” value [1, 5] was 61.07 s, the “Quick (Prothrombin Time), individual rats” value [1, 5] was 52.3 s and 57.4 s and 55.3 s and 66.2 s and 66.0 s and 59.6 s and 64.6 s and 67.2 s and 62.2 s and 59.9 s and the “IHT (hemorrhage time), Mean” value [2] was 690.9 s. For the same compound, the “IHT (hemorrhage time), individual rats” value [2] was 679 s and 767 s and 680 s and 734 s and 702 s and 663 s and 735 s and 567 s, the “Bleeding Time, individual rats” value [2, 6] was 658 s and 597 s and 533 s and the “Bleeding time, Mean” value [2, 6] was 596 s. For the same compound, the “Bleeding Time, individual rats” value [2, 7] was 400 s and 345 s and 405 s and 370 s and 290 s and 265 s and 350 s and 300 s and 315 s and 275 s, the “Bleeding time, Mean” value [2, 7] was 331.5 s and the “Volume (blood loss), Mean” value [2, 7] was 1294 µL. The “Volume (blood loss), individual rats” value [2, 7] was 1650 μl and 1300 μl (2×) and 1800 μl and 1380 μl and 1200 μl and 940 μl and 1140 μl and 1130 μl and 1100 μl, the Bleeding time [3] was 313.33 ± 20 s and the Number of platelets [4] was 777.33 ± 6.43 10^9. The “Number of red corpuscles” value [4] was 6.20 ± 0.20 10^12 and the “Number of white corpuscles” value [4] was 5.80 ± 0.10 10^9.

In the case of `C[N+](C)(C)CC(=O)O` [Glycine betaine], the “APTT prolongation despite betaine administration” value [1, 8] is reported as “up to 6 ×”, the “Animals with normalized Prothrombin times” value [1, 8] is reported as 8 out of 10 and the “Fibrinogen level change versus heparin” value [1, 8] is reported as −10%. For the same compound, the “Fibrinogen level change versus the control” value [1, 8] was −23%, the “Reduction of Anti-Xa activity, antidote group compared to the heparin group” value [1, 8] was 74% and the “IHT (hemorrhage time), Mean” value [2] was 169.9 s. The “IHT (hemorrhage time), individual rats” value [2] was 166 s and 180 s and 162 s and 173 s and 194 s and 203 s and 159 s and 142 s and 123 s and 197 s, the “Volume of blood loss by visual inspection” value ([2]; Example 36, antidote group versus heparin group) was “significantly reduced” and the “B.T.C. (bleeding time caused)” value ([3]; Group I: injected 1 hour before the experiment) was 105 ± 26.2 s. The “B.T.C. (bleeding time caused)” value ([3]; Group II: injected 2 hours before the experiment) was 145 ± 15.52 s, the “B.T.C. (bleeding time caused)” value ([3]; Group III: injected 3 hours before the experiment) was 115.5 ± 14.2 s and the “B.T.C. (bleeding time caused)” value ([3]; Group IV: injected 4 hours before the experiment) was 120 ± 10.13 s. The “Provoked Haemorrhage time” value ([3]; 10 mg/kg subcutaneous) was 105 s, the Provoked haemorrhage ([3]; 10 mg/kg subcutaneous) was 114 ± 12.76 s and the Provoked haemorrhage ([3]; 20 mg/kg subcutaneous) was 110 ± 13.22 s. For the same compound, the “Provoked Haemorrhage time” value ([3]; 30 mg/kg subcutaneous) was 112 s, the “Provoked Haemorrhage time” value ([3]; 50 mg/kg subcutaneous) was 115 s and the Induced haemorrhage ([3]; 1 hour) was 120 ± 5 s. For the same compound, the Induced haemorrhage ([3]; 6 hours) was 111 ± 3.6 s, the Induced haemorrhage ([3]; 24 hours) was 113.33 ± 18.92 s and the Induced haemorrhage ([3]; 48 hours) was 109 ± 8.54 s. For the same compound, the Bleeding time [3] was 95 ± 5 s, the Number of platelets [4] was 804.67 ± 20.03 10^9 and the “Number of red corpuscles” value [4] was 6.19 ± 0.25 10^12. The “Number of white corpuscles” value [4] was 4.43 ± 0.32 10^9.
